Measurements taken from the supplement of paper PMC11208160.

Assay: recombinant barcode read abundance after kanamycin selection (control-corrected) (log10(CPM+1)); higher = more efficient recombination; sequences stand for … in AGTGCAGAGAAAATCGGCCAGTTTTCTCTGCCTGCAGTCCGCATGCCGT…AGATTTATGCAGCGGACTGCCTTTCTCCCAAAGTGATAAACCGGACAGTATCATGGACCGGTTTTCCCGGTAATCCGTATTTGCAAGGTTGGTTTCACT; site = the 11-nt target
In short: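 A vector carrying a T7-inducible recombinase and the last 73 bp of the bridge RNA received, by Gibson cloning, oligos encoding a promoter, target, barcode and the first 104 bridge RNA bases under J23119. The pooled constructs entered E. coli together with a donor plasmid by electroporation. Selection used chloramphenicol/ampicillin/kanamycin with 0.1 mM IPTG, with chloramphenicol/ampicillin LB agar as the control, each in two replicates. Recombination efficiency is the averaged, control-corrected counts-per-million of barcodes at recombinant junctions, reported as log10(CPM+1).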
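Note: IS621 recombinase and bridge RNA in Escherichia coli cells.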

Row | Sequence | recombinant barcode read abundance (log10)
1 | ATCGGTCCTTGGGTTCTAACCTGTTGCCT (site ATGGGTCCTAG) | 0.0682
2 | ATCGGTCCTTGGGTTCTAACCTGTTGCCT (site ATTGGTCCTAG) | 0.174
3 | ATCGTACCTTGGGTTCTAACCTGTTGCTA (site ATCGTACCTTA) | 0.0937
4 | ATCGTACCTTGGGTTCTAACCTGTTGCTA (site CAAAAGGCTAG) | 0.973
5 | ATCGTTGCTTGGGTTCTAACCTGTTGCCT (site ATCGTTGCTAG) | 0.657
6 | ATCGTTGCTTGGGTTCTAACCTGTTGCCT (site CTCGTTGCTAG) | 0.0176
7 | ATCGTTGCTTGGGTTCTAACCTGTTGCCT (site GTCGTTGCTAG) | 0.0617
8 | ATCGTTGCTTGGGTTCTAACCTGTTGCCT (site TTCGTTGCTAG) | 0.0404
9 | ATCTAGGCTTGGGTTCTAACCTGTTGCCG (site ATCTAGGCTCG) | 0.0337
10 | ATCTAGGCTTGGGTTCTAACCTGTTGCCG (site CATAGATCTAT) | 0.099
11 | ATCTGGGCTTGGGTTCTAACCTGTTGCCT (site AACTGGGCTAG) | 0.339
12 | ATCTGGGCTTGGGTTCTAACCTGTTGCCT (site ACCTGGGCTAG) | 0.0625
13 | ATCTGGGCTTGGGTTCTAACCTGTTGCCT (site AGCTGGGCTAG) | 0.123
14 | ATCTGGGCTTGGGTTCTAACCTGTTGCCT (site ATCTGGGCTAG) | 0.0992
15 | ATCTTAACTTGGGTTCTAACCTGTTGCCT (site ATCTTAACTAG) | 0.183
16 | ATCTTAACTTGGGTTCTAACCTGTTGCCT (site ATCTTACCTAG) | 0.643

Row | Sequence | recombinant barcode read abundance (log10)
17 | ATCTTAACTTGGGTTCTAACCTGTTGCCT (site ATCTTAGCTAG) | 0.337
18 | ATCTTAACTTGGGTTCTAACCTGTTGCCT (site ATCTTATCTAG) | 0.00981
19 | ATCTTGTCTTGGGTTCTAACCTGTTGCCT (site ATCTTGTCTAG) | 0.977
20 | ATCTTGTCTTGGGTTCTAACCTGTTGCCT (site ATCTTGTCTCG) | 0.0162
21 | ATGAAGACTTGGGTTCTAACCTGTTGCCT (site ATAAAGACTAG) | 2.09
22 | ATGAAGACTTGGGTTCTAACCTGTTGCCT (site ATCAAGACTAG) | 1.07
23 | ATGAAGACTTGGGTTCTAACCTGTTGCCT (site ATGAAGACTAG) | 2.13
24 | ATGAAGACTTGGGTTCTAACCTGTTGCCT (site ATTAAGACTAG) | 1.12
25 | ATGACCGCTTGGGTTCTAACCTGTTGCCA (site AGGACCACTTG) | 0.246
26 | ATGACCGCTTGGGTTCTAACCTGTTGCCA (site ATGACCGCTTG) | 1.28
27 | ATGACTACTTGGGTTCTAACCTGTTGCTA (site ATGACTACTGA) | 0.136
28 | ATGACTACTTGGGTTCTAACCTGTTGCTA (site ATGACTACTTA) | 0.456
29 | ATGAGAACTTGGGTTCTAACCTGTTGCCT (site ATGAGAACTAG) | 1.5
30 | ATGAGAACTTGGGTTCTAACCTGTTGCCT (site ATGAGAACTCG) | 0.361
31 | ATGATTCCTTGGGTTCTAACCTGTTGCCT (site AAGATTCCTAG) | 0
32 | ATGATTCCTTGGGTTCTAACCTGTTGCCT (site ACGATTCCTAG) | 0.0545
